# Results as given in EP0234431A2, “5-Hydroxydihydrofusarubin, a process for its preparation and its use for the preparation of a medicament” (HOECHST JAPAN LIMITED, priority 1986, dated 1987).
# Legend:
# [1] = tested on: mouse leukemia L1210 cells; test: Antitumor test, growth inhibition of L1210 cells in suspension; type: cell-based; details: growth of mouse leukemia L1210 cells in suspension (1 x 10⁶/mouse)
# Protocol: An antitumor test was carried out for 5-hydroxy dihydrofusarubin. Half value (IC₅₀) inhibiting growth of mouse leukemia L1210 cells in suspension (1 x 10⁶/mouse) was as follows: […]
# [2] = tested on: Streptococcus pneumoniae DP-1; test: Antimicrobial test, agar plate-dilution method; type: cell-based; details: DP1
# Protocol: (§1) Minimum inhibitory concentrations (MIC) of 5-hydroxydihydrofusarubin (I) against bacteria and fungi were determined by the agar plate-dilution method.
# Candida albicans C-a-30 = test: Antimicrobial test, agar plate-dilution method; type: cell-based; details: CA30
# Protocol: as §1
# [3] = tested on: Bacillus subtilis ATCC 6633; test: Antimicrobial test, agar plate-dilution method; type: cell-based; details: ATCC6633
# Protocol: as §1
# [4] = tested on: Saccharomyces cereviciae ATCC 9763; test: Antimicrobial test, agar plate-dilution method; type: cell-based; details: ATCC9763
# Protocol: as §1
# [5] = tested on: Staphylococcus aureus FDA209PJC1; test: Antimicrobial test, agar plate-dilution method; type: cell-based
# Protocol: as §1
# [6] = Solubility (physicochemical properties)
# Protocol: Physicochemical properties of 5-hydroxydihydrofusarubin (I) produced by the present invention are as follows: • (1) Appearance: Orange plates • (2) Molecular formula: C₁₅H₁₈O₇ • (3) Molecular weight: 310 • (4) Melting point: 192-193°C • (5) Optical rotation: -171.4 (in 0.06% acetone solution) • (6) Ultraviolet and visible absorption spectrum: in 95% ethanol solution: λ max (nm) (logε) 211(4.17), 245(4.08), 284(3.97), 359(3.88) • (7) Infrared absorption spectrum: The infrared absorption spectrum measured in potassium bromide tablet is shown in Fig. 1. • (8) ¹H-NMR: ¹H-NMR measured in deuteriumchloroform is shown in Fig. 2. Chemical shifts were assigned as shown below. [formula] • (9) ¹³C-NMR: ¹³C-NMR measured in deuteriumchloroform is shown in Fig. 3. Chemical shifts were assigned as shown below. [formula] • (10) Solubility: Soluble in chloroform, methylene chloride, ethyl acetate, acetone, ethanol or methanol. […] Solubility in water: Insoluble under acidic or neutral condition, and soluble under alkaline condition.
structure (smiles),measurement,setting,value
COc1cc(O)c2c(c1O)C(O)C1CC(C)(O)OCC1C2=O (stereo not shown) [5-Hydroxydihydrofusarubin],IC50,[1],9.4 ± 0.9 µg/mL
same,MIC,[2],50 µg/mL
same,MIC,Candida albicans C-a-30,100 µg/mL
same,MIC,[3],100 µg/mL
same,MIC,[4],50 µg/mL
same,MIC,[5],100 µg/mL
same,Solubility,"[6]; in chloroform, methylene chloride, ethyl acetate, acetone, ethanol or methanol",Soluble
same,Solubility,[6]; in hexane or petroleum ether,Sparingly soluble
same,Solubility in water,[6]; under acidic or neutral condition,Insoluble
same,Solubility in water,[6]; under alkaline condition,soluble
